Measured values reported in patent publication US10487313B2, “Efficient induction of definitive endoderm from pluripotent stem cells” (Novo Nordisk A/S, priority 2011, dated 2019).

Legend:
Format in all cases: cell-based, human
[1] = test system: SA121 and chIPS cells; assay: CHIR dose dependency: cell survival after titration and AA treatment; settings: then 2 d AA
Description: Brachyury expression was analysed after 24 h treatment in SA121 (FIG. 7A) and chIPS cells (FIG. 7C). SOX17 expression was analysed D3 in SA121 (FIG. 7B) and chIPS cells (FIG. 7D)).
Confluent cultures were washed once in RPMI1640 (Invitrogen) before 24 hour pre-treatment with 0,5-7μM CHIR99021 (Stemgent) in RPMI. Control cells were left untreated in RPMI and D'Amour cells were either left in RPMI or treated with AA (Peprotech)+Wnt3a (R&D Systems) without pre-treatment depending on experimental setup.
Chir was titrated at concentrations between 1-7 uM and analyzed after 24 h Chir treatment (D1) and after 2 d of following AA treatment (D3).

[2] = test system: hES SA121 cells; assay: OCT4 and SOX17 protein ICC quantification during DE induction, DEF culture system; settings: CHIR 3 μM D1 then Activin A D2-3, or D'Amour protocol
Description: Human embryonic stem (hES) cells SA121 and […]) were grown on human fibronectin (Sigma) in DEF culture media (Cellartis) with 30 ng/ml bFGF (Invitrogen) and 10 ng/ml Noggin (Peprotech) in 6-96 well plates. Cells were single cell passaged with Rock inhibitor Y-27632 (Calbiochem) and seeded at a density of 40000 cells/cm2 for experiments. Experiments were initiated 4 d after passage. Confluent cultures were washed once in RPMI1640 (Invitrogen) before 24 hour pre-treatment with 0,5-7μM CHIR99021 (Stemgent) in RPMI. Control cells were left untreated in RPMI and D'Amour cells were either left in RPMI or treated with AA (Peprotech)+Wnt3a (R&D Systems) without pre-treatment depending on experimental setup. After 24 hours, pretreated and control cells were washed once with RPMI before adding 100 ng/ml AA in RPMI. D'Amour cells were also treated with 100 ng/ml AA but with 0,2% FBS instead of B27. 24 h later, 2% B27 (Invitrogen) was added to the AA media for 2-3 d. Control cells were treated with B27 to prevent cell death and D'Amour cells with 2% FBS according to published protocol. Media was changed every day. • Day 1: Cells were washed carefully in prewarmed (37° C.) RPMI before starting the differentiation. Day1 medium was premixed (CHIR 3 μM in prewarmed RPMI+PEST) and gently added to cell culture. Volumes were adjusted according to plate formats. • Day 2: Cells were washed carefully in prewarmed (37° C.) RPMI before media change. Day2 medium was premixed (100 ng/ml Activin A in prewarmed RPMI+0.1% PEST) and gently added to cell culture. • Day 3: Day3&4 mediums were premixed (100 ng/ml Activin A and 2% B27 in prewarmed RPMI+0.1% PEST) and gently added to cell culture. • Day 4: DE was harvested or reseeded for further differentiation. Cells were checked under the microscope every day. Cells were washed in PBS+/+ and fixed in 4% formaldehyde for 30 min (10% formaline, VWR). The cells were then washed again three times in PBS and left in PBS (4° C.) until staining. Fixed cells were washed with PBS once, then permeabilized with 0.5% Triton X-100 in PBS for 6 min, washed in PBS and blocked with TNB buffer (0.1 M Tris-HCL pH 7.5, 0.15 M NaCl, 0.5% Blocking Reagent (Perkin Elmer)) for 30 min. Primary antibodies (goat-anti-SOX17 (AF1924, RnD Systems); goat-anti-Brachyury (AF2085, RnD Systems); mouse-anti-OCT4 (sc5279, SantaCruz Biotechnology); goat-anti-PDX1 (AB47383, Abcam)) were added in 0.1% TritonX-100+PBS for 1 h in RT or 4° C. O/N. After a thorough washing step in PBS, secondary antibodies were added together with DAPI in 0.1% Triton X-100+PBS for 45 min at RT, washed thoroughly in PBS and left in PBS until photodocumentation.

[3] = test system: chIPS4 cells; assay: Further differentiation of DE towards pancreatic endoderm, PDX1 by ICC and real-time PCR; settings: seven days after induction of PE differentiation
Description: When cells were further differentiated to PE, the DE protocol was applied in T75 cell culture flasks and reseeded after 4 d of DE culture at a density of 200 K in DE media. 1 d later, cells were washed once before addition of PE media (RPMI1640+12% KOSR+64 ng/ml bFGF) according to published protocol (Amen et al 2010). RNA samples were collected after 24 h pre-treatment (D1), after 1 day of AA treatment (D2) and after 1-2 d of AA+B27 treatment (D3-4). Total RNA was extracted with the Rneasy Plus Mini kit (Qiagen) and quantitative real-time PCR was performed using the StepOnePLus system (Applied Biosystems). Cells were washed in PBS+/+ and fixed in 4% formaldehyde for 30 min (10% formaline, VWR). The cells were then washed again three times in PBS and left in PBS (4° C.) until staining. Fixed cells were washed with PBS once, then permeabilized with 0.5% Triton X-100 in PBS for 6 min, washed in PBS and blocked with TNB buffer (0.1 M Tris-HCL pH 7.5, 0.15 M NaCl, 0.5% Blocking Reagent (Perkin Elmer)) for 30 min. […] Seven days after the induction of PE differentiation the cells were fixed and analyzed by ICC using a PDX1 specific antibody. […] In parallel, mRNA was collected from the cells and the PDX1 expression was analyzed by real-time PCR. […]

SMILES: Cc1c[nH]c(-c2cnc(NCCNc3ccc(C#N)cn3)nc2-c2ccc(Cl)cc2Cl)n1 [CHIR, CHIR99021]
- cell survival D3 ([1]; CHIR 7 uM 24 h): did not survive d3
- cell survival D3 ([1]; CHIR 0.5-1 uM 24 h): did not survive d3
- OCT4 ICC % positive cells ([2]; SA121, D1): 97.7%
- SOX17 ICC % positive cells ([2]; SA121, D1): 0%
- OCT4 ICC % positive cells ([2]; SA121, D2): 2.4%
- SOX17 ICC % positive cells ([2]; SA121, D2): 72.1%
- OCT4 ICC % positive cells ([2]; SA121, D3): 0.2%
- SOX17 ICC % positive cells ([2]; SA121, D3): 93.1%
- PDX1 mRNA expression by real-time PCR [3]: clear expression
- PDX1 staining by ICC [3]: evident
